Biological target: T1, MrkH (MrkH-8×His) (Klebsiella pneumoniae, UniProt G3FT00)
T1 construct: full length, 234 aa, C-terminal 8×His tag, expressed from pET11a in E. coli BL21(DE3), about 28 kDa
Assay: EMSA with […]-labelled mrkA promoter fragment
Type: biochemical
Conditions: 200 µM c-di-GMP; pH 7.4; 30°C; 0-500 nM protein; allosteric activator of DNA binding; indirect read-out, no direct c-di-GMP binding measured

T1 sequence (G3FT00 entry or part of it): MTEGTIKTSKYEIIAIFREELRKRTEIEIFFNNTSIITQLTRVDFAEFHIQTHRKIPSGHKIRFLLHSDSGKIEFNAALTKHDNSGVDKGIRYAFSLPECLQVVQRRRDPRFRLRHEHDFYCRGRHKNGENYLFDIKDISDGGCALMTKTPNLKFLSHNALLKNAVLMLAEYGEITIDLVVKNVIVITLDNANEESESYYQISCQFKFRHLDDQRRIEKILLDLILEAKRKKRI

For `Nc1nc2c(ncn2[C@@H]2O[C@@H]3COP(=O)(O)O[C@H]4[C@@H](O)[C@H](n5cnc6c(=O)[nH]c(N)nc65)O[C@@H]4COP(=O)(O)O[C@H]3[C@H]2O)c(=O)[nH]1` [c-di-GMP], the “EMSA with 32P-labelled mrkA promoter fragment” value was “In the presence of c-di-GMP, the majority of the DNA was shifted”.
